We go through one molecule from PMC12027554, “Inhibition of ABCG2 by SCO-101 Enhances Chemotherapy Efficacy in Cancer” (International Journal of Molecular Sciences, 2025).

Molecules are shown by their SMILES. Some results are limits rather than exact numbers.

One series deals with HT29PAR cells. Kind of series: Cellular dye efflux assay (Hoechst 33342), parental cells. In kind it is cell-based, human. Particulars: SCO-101 20 µM, Ko-143 1 µM. The method, then: Twenty-four hours before the experiments, cells were seeded into 96-well Nunclon^TM plates at a density of 6000 (HT29), 7000 (PANC-1) or 8000 (LoVo) cells/well. The following day, cells were treated in triplicate with the relevant drugs at the indicated concentrations for 1 h. Next, 5 μg/mL Hoechst 33342 was added to the wells, and plates incubated at 37 °C for 30 min^−1 h. Cells were washed with cold PBS, treatments re-added and plates re-incubated at 37 °C for 30 min to 1 h. Plates were analyzed using a Celigo® (Nexcelom Bioscience, Lawrence, MA, USA) imaging cytometer. Data are expressed as percentages of fluorescence intensity, calculated through the following formula: % fluorescence intensity=Mean fluorescence intensity of sample/Mean fluorescence intensity of parental control×100
Fluorescent images were captured with an Olympus® IX71/TH4-200 microscope equipped with an Olympus® DP72 camera (Shinjuku, Tokyo, Japan), and cells were seeded at a 1.5 × 10^5 cells/well density and treated as described above.

In a further series the target is MDR1/ABCB1 (Homo sapiens, UniProt P08183). The series can be described thus: Efflux transporter inhibition, vesicular uptake into inside-out membrane vesicles (ABCB1). The class given is biochemical. Particulars: 1 μM N-methyl-quinidine. Here is the method: (§1) Efflux transporter inhibition was evaluated by measuring vesicular uptake into inside-out membrane vesicles (SOLVO biotechnology, Budapest, Hungary) expressing a single human ABC transporter (0.67 mg/mL ABCB1; 0.67 mg/mL ABCC2; 0.33 mg/mL ABCG2 membrane protein) of a probe substrate (1 μM N-methyl-quinidine for ABCB1; 100 μM 5(6)-carboxy-2′,7′-dichlorofluorescein for ABCC2; 1 μM Eestrone-3-sulfate for ABCG2) in the presence of SCO-101 with and without ATP (4 mM) in 96-well plate format. Control solvent and control inhibitors (4–60 μM verapamil for […]; 1–15 μM sulfasalazine for ABCG2; 5.5–150 μM benzbromarone for ABCC2) were incubated in parallel. Vesicular uptake was conducted at 37 °C in incubation buffer (10 mM Tris-HCl, pH 7.4, 10 mM MgCl2, 250 mM sucrose) and terminated after 1 min (ABCB1 and ABCG2) or 5 min (ABCC2) by adding ice-cold washing buffer (10 mM Tris-HCl, pH 7.4, 100 mM NaCl, 250 mM sucrose). […] Probe quantification was conducted using LC-MS/MS peak areas (solvent control with ATP − AMP = 100%). […] The remaining transporter activity % was calculated according to the formula below, and fitting was performed using GraphPad Prism: A%=AATP,sample−AAMP,sample/AATP,solvent−AAMP,solvent
MDR1/ABCB1, sequence (P08183 whole entry): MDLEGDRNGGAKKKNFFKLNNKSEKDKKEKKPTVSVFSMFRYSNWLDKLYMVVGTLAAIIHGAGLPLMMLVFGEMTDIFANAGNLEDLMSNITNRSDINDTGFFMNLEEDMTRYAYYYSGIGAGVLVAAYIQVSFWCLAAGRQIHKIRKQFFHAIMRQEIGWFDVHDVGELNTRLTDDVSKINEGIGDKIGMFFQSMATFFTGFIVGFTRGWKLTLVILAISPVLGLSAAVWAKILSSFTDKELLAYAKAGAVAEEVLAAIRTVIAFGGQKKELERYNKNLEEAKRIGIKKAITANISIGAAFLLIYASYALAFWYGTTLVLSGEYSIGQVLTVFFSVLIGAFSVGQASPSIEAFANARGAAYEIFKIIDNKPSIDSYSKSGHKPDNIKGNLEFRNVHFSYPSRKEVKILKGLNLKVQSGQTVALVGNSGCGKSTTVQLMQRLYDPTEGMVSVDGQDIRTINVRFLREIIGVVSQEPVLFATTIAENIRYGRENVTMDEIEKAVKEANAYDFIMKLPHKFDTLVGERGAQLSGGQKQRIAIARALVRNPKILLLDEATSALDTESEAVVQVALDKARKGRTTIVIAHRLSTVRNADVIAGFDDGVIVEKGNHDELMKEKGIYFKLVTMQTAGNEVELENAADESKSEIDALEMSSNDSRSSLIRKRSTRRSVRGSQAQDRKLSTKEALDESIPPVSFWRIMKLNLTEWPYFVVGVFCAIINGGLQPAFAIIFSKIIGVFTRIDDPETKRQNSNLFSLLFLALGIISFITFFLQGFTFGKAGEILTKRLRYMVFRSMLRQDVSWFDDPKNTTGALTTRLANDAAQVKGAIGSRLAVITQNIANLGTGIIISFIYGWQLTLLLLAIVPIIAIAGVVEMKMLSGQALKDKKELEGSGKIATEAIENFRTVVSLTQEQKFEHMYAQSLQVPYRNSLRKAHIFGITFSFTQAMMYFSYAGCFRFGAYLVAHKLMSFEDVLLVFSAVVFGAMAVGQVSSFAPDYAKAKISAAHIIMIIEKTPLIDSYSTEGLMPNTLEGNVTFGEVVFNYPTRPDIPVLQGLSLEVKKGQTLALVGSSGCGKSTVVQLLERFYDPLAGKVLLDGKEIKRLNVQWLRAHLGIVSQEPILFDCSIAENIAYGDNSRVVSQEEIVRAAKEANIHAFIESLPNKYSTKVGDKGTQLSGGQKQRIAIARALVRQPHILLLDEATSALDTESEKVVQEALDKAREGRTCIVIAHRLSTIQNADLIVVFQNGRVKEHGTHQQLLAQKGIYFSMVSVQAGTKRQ

The subject of another series is HT29SN-38 cells. Kind of series: 3H-SN-38 uptake in cell monolayers. The class given is cell-based, human. Particulars: HT29SN-38 monolayers. The method, then:
Cells were seeded at a density of 1.8 × 10^4 cells/well in 96-well plates and sub-cultured for 48 h. Drugs were dissolved in HBSS transport buffer (HBSS, 0.05% BSA, 10 mM HEPES, pH 7.4) at different concentrations. All treatments were investigated in technical triplicates. On the day of the experiments, the culture medium was exchanged with 100 μL transport buffer and cells incubated for 15 min at 37 °C. Next, the blank transport buffer was exchanged with 50 μL transport buffer containing the different compounds (2X of final concentrations) and incubated for an additional 15 min at 37 °C. The uptake experiment was started by adding 50 μL of 2 μCi/mL ^3H-SN38 and stopped after 15 min of incubation at 37 °C by removing the transport buffer from all wells. Cell monolayers were washed twice by adding/removing ice-cold transport buffer and lysed for 15 min at RT in 100 μL 0.1% TritonX-100. Cell lysates were transferred to scintillation vials containing 2 mL of scintillation fluid (Ultima Gold, PerkinElmer). Each well was washed with 100 μL purified water (milliQ), which was also transferred to respective scintillation vials. The radioactivity in each scintillation vial was measured by means of scintillation counting (Tri-Carb 2910 TR, PerkinElmer, Waltham, MA, USA).

On the set-up of series [1]: method as in PMID 32628359. Particulars: four independent Phase I studies; cited from earlier work.
The next series addresses T1, ABCG2 (Homo sapiens, UniProt Q9UNQ0).
T1 sequence (Q9UNQ0 1-655): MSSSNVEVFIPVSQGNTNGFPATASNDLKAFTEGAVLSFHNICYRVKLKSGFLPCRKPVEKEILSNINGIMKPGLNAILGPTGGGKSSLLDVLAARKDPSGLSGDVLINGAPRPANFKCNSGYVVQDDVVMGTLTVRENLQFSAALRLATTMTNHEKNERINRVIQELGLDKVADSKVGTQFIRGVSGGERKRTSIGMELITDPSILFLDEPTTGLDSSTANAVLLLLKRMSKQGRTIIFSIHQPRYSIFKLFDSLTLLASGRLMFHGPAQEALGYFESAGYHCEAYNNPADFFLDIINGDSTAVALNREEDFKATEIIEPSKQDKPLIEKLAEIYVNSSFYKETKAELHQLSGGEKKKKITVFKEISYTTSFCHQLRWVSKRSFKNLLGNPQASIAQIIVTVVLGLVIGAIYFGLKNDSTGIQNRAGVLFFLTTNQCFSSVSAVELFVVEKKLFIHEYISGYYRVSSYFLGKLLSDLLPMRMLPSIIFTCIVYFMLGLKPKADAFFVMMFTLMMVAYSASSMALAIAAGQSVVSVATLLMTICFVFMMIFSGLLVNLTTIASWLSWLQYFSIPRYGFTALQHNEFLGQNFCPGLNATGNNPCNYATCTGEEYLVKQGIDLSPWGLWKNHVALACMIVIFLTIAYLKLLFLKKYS
The series can be described thus: Efflux transporter inhibition, vesicular uptake into inside-out membrane vesicles (ABCG2). In kind it is biochemical. Details: purchased SOLVO biotechnology, Budapest, Hungary. The method, then:
as §1

The IC50 is the midpoint of a concentration-inhibition curve. A word on the EC50: it is the concentration that produces a half-maximal response. `O=C(Nc1cc(C(F)(F)F)cc(C(F)(F)F)c1)Nc1ccc(Br)cc1-c1nnn[nH]1` [SCO-101, N-[4-Bromo-2-(1H-1,2,3,4-tetrazol-5-yl)phenyl]-N′-[3,5-bis(trifluoromethyl)phenyl]urea]: the H33342 dye accumulation entry in the series with HT29PAR cells is on record as “No change”. The half-inhibitory concentration (IC50) on MDR1/ABCB1 is 16.1 µM; at ABCG2 (ABCG2 inside-out vesicles, 1 μM estrone-3-sulfate, SCO-101 0.001–300 µM, read-out: IC50, ATP-dependent vesicular uptake of probe substrate (remaining ABCG2 activity)), 0.16 µM. Further, the “cellular accumulation of 3H-SN-38” value with HT29SN-38 cells (SCO-101 25 µM, Ko-143 0.5 µM, ZSQ 0.5 µM, vs control (HBSS)) is given as “greater than those of Ko-143-treated cells”. In addition, the concentration for a half-maximal effect (EC50) in the series on HT29SN-38 cells (Homo sapiens, read-out: EC50, 3H-SN-38 uptake (regarded as IC50 of ABCG2 inhibition)) turned out to be 6.4 µM. Moreover, in series [1], the toxicity result was “low SCO-101 toxicity”. Besides, the “IC50 for MDR1/ABCB1 and MRP2/ABCC2 relative to ABCG2” value against ABCG2 (selectivity for ABCG2) is on record as greater than 100 fold.
